We go through 6 compounds from patent publication US5352462A, “Anti-inflammatory factor, method of isolation, and use” (Stolle Research & Development Corporation, priority 1992, dated 1994).

Assay [1] deals with reverse passive Arthus reaction. Briefly: Reverse passive Arthus reaction. In kind it is in vivo, rat. Conditions: 20 mg i.v. Here is the method:
The possibility that the anti-inflammatory factor might affect neutrophil involvement was investigated by evaluating the ability of the material to modulate the reverse passive Arthus reaction (RPA). This immune complex-induced response is primarily neutrophil mediated and agents which affect the development of the reaction do so via an effect on these cells. To induce the RPA, rats were injected intradermally with rabbit antibody to ovalbumin and intravenously with native ovalbumin. Ovalbumin/ovalbumin-antibody immune complexes form in and around the dermal blood vessel walls, host neutrophils bind to the Fc portion of the antibody and an intense inflammatory reaction is initiated. It should be noted that, although the response is initiated by immune-complexes, it takes place independently of the host's immune system.
Three parameters are used to quantify the RPA. These are, (1) edema--measured using the accumulation of ^125 I-HSA, (2) hemorrhage--assessed by in vivo pre-labelling RBC's with ^59 Fe and (3) neutrophil accumulation--measured by determining tissue levels of the neutrophils specific enzyme myeloperoxidase (MPO). These assays are known to those of ordinary skill in the art.
Eighteen rats were divided into three groups of six. Rabbit antiovalbumin (40 μl) was injected intradermally at four sites on the back of each animal and 2 mg of ovalbumin injected intravenously immediately afterwards. One group of animals received no other treatment and served as controls. The second group were injected intravenously with 20 mg of a lactose preparation, while the final group were injected intravenously with 20 mg of a purified preparation of MAIF. Both lactose and MAIF preparation were administered with the ovalbumin. The severity of the reaction was assessed 3.5 hours after challenge.

Assay [2] relates to neutrophil adhesion to venular endothelium. The experiment in a line: Intravital microscopy of PAF-exposed rat mesenteric venules. It counts as in vivo. Conditions: PAF superfusion 100 nM, 60 min. Here is the method:
The temperature of the pedestal was maintained at 37° C. with a constant temperature circulator (Fisher Scientific, model 80).

Assay [3] concerns carrageenan-induced footpad edema. Briefly: Quantitative rat paw edema test with 125I-HSA. In kind it is in vivo. Conditions: aspirin 200 mg/kg oral, 30 min prior. The procedure:
Peak I from the G-10 column, supplied by Stolle Milk Biologics International, was prepared according to the methods described in U.S. Pat. No. 4,956,349. Lactose, obtained from commercial sources, was used as placebo. Aspirin was used as a positive control. Aspirin was dissolved in water and given orally by gastric gavage at the ratio of 200 mg per kilogram, a dose known to be active in the assay. […] The footpad assay was modified by using isotopically labeled human serum albumin (^125 I-HSA) that localizes in the carrageenan-induced lesion in direct proportion to the volume of the exudate. By determining the total radioactive count in the footpad and comparing this to the counts in a known volume of plasma from the injected animal, a direct measurement of edema in microliters of plasma equivalents is obtained. ^125 I-HSA was injected intravenously at a dose of 1.0 microcurie per rat. Female Dark Agouti rats were used. […]
To conduct the carrageenan footpad assay, 0.1 ml of 2% carrageenan was injected subcutaneously into each hind foot pad of an anesthetized rat. […] Both hind feet were then removed and the levels of radioactivity in each foot and in the 200 μl plasma standard were measured in an automated gamma counter. From these measurements the volume of edema in each foot was calculated and expressed in microliters. […]

Assay [4] concerns circulating neutrophils and lymphocytes. Briefly: Circulating leucocytes after i.v. administration. In kind it is in vivo, rat. The procedure: Two experiments were done. In the first, the MAIF preparation was administered intravenously at a dose of 40 mg/rat to one group of 6 animals and a control group was injected with saline. Blood samples were obtained at baseline, 1, 4, and 24 hours after treatment.
A further dose-response study was carried out in which a group of rats were injected intravenously with saline, 5, 10 or 20 mg of the MAIF preparation. Blood from each rat had been taken 7 days previously to provide baseline values and was taken again 4 hours after the injection of MAIF. Included on the graph are the results obtained from the sample taken 4 hours after the administration of 40 mg the MAIF preparation (see FIG. 31).
Data were also obtained pertaining to the effect of three other cell-targeted, anti-inflammatory/immunomodulatory agents on circulating leucocytes in the rat. […] The temporal relationship between drug administration and effect is somewhat different. […] The effects of the anti-inflammatory factor would appear to closely parallel the action of methyl-prednisolone.

In assay [5] the test system is superoxide production by neutrophils. The experiment in a line: Superoxide assay, cytochrome C reduction by stimulated neutrophils. It counts as cell-based, human.
Description: Neutrophils from healthy donors were purified by dextran sedimentation followed by hypotonic lysis and Histopaque centrifugation. Except for the dextran sedimentation step, which was performed at room temperature, the cells were kept at 4° C. throughout the isolation procedure. […] After isolation, neutrophils were resuspended at a final concentration of 2×10^6 cells/ml in phosphate buffered saline (PBS). […] After washing, neutrophils were incubated in the dark at 4° C. for 30 minutes with saturating concentrations of fluorescein-conjugated murine anti-human CD18, human CD11 b, IGG coated microbeads (Simply Cellular™ microbeads) or the murine negative control antibody.
The reduction of cytochrome C by activated neutrophils was measured using a spectrophotometer (Hitachi U2000) at 550 nm. Briefly, sample was added to two cuvettes and one cuvette was used as a reference. The latter contained superoxide dismutase (superoxide scavenger). […] Superoxide production was measured for 3 min.

In the case of `OC[C@H]1O[C@@H](O[C@H]2[C@H](O)[C@@H](O)C(O)O[C@@H]2CO)[C@H](O)[C@@H](O)[C@H]1O` (stereo partly drawn) [Lactose], in assay [1], the “suppression of neutrophil accumulation and hemorrhage” value was “modest and marginally significant suppression”. Besides, in assay [1] (3.5 hours after challenge), the “Haemorrhage: μl of RBC” value is 3.0 ± 1.5 μl of RBC, the “Neutrophil accumulation: Units of MPO” value is reported as 0.214 ± .176 Units of MPO and the “μl of Edema” value was found to be 104 ± 23 µL.

In the case of `CCCCCCCCCCCCCCCCOCC(COP(=O)([O-])OCC[N+](C)(C)C)OC(C)=O` (stereo not drawn) [PAF], the “increase in neutrophil adhesion to postcapillary venules” value in assay [2] is given as “approximately 6 fold”.

In the case of `CC(=O)Oc1ccccc1C(=O)O` [aspirin, Acetylsalicylic acid], the inhibition of edema result in assay [3] is reported as “inhibited”.

For `O=P1(N(CCCl)CCCl)NCCCO1` (stereo not drawn) [cyclophosphamide], the “circulating lymphocytes and neutrophils” value in assay [4] (comparator agents) is “depletes both circulating lymphocytes and neutrophils”.

Turning to `C[C@H]1C[C@@H]2[C@H]([C@@H](O)C[C@@]3(C)[C@H]2CC[C@]3(O)C(=O)CO)[C@@]2(C)C=CC(=O)C=C12` [methylprednisolone], the lymphocyte/neutrophil ratio result in assay [4] (rat, in vivo) is on record as “analogous to that seen with MAIF”.

Regarding superoxide dismutase, the “cytochrome c reduction by PMA and fMLP-stimulated neutrophils” value in assay [5] was “completely blocked”.
